The structures appear in SMILES notation.

In this experiment the target is RAF proto-oncogene serine/threonine-protein kinase (Homo sapiens, UniProt P04049). Nature of the experiment: Inhibition of Raf1 kinase.
Sequence of RAF proto-oncogene serine/threonine-protein kinase (P04049 whole entry): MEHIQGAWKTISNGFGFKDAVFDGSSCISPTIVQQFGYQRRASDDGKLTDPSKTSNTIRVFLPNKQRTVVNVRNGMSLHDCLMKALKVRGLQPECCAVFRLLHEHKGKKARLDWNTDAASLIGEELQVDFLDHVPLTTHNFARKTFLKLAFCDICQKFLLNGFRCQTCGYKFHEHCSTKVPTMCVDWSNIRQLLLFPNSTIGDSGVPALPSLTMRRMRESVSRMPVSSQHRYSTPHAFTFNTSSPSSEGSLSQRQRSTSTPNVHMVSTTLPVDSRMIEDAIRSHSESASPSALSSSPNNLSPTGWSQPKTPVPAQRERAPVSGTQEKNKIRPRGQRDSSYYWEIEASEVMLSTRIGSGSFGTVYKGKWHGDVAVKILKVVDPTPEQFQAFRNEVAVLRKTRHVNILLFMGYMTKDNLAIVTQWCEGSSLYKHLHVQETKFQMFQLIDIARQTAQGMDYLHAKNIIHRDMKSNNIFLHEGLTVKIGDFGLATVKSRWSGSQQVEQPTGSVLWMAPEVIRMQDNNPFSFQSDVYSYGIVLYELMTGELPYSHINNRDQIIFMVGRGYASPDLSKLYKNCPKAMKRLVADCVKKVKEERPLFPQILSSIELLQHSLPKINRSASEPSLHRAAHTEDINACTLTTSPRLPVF
For `NC(=O)c1cc(Oc2ccc(NC(=O)Nc3ccc(Cl)c(C(F)(F)F)c3)cc2)ccn1`, the IC50 came out at 0.013 µM.

Take `CC(C)(C)c1nnc(NC(=O)Nc2ccc(Oc3ccncc3)cc2)s1`: the midpoint of inhibition, the IC50, lay at 8.6 µM.

Compound `CC(C)(C)c1nnc(NC(=O)Nc2ccc(Oc3ccncc3)cc2)o1` had an IC50 of 6.3 µM.

The compound `CNC(=O)c1cncc(/C=C/c2c(C)cccc2C)c1` [GW445012X] yielded an IC50 of 0.25 µM.

Compound `CNC(=O)c1cncc(/C=C/c2c(Cl)cccc2Cl)c1` [GW445014X] showed an IC50 of 0.251 µM.

Turning to `CNC(=O)Oc1cc(C)c(/C=C/c2cncc(C#N)c2)c(C)c1`, the IC50 was found to be 0.04 µM.

Take `Oc1cc(-c2nc(-c3ccccc3)[nH]c2-c2ccncc2)ccc1Cl`: the IC50 was found to be 0.0014 µM.

On to `Cc1cc(-c2ccccn2)cc(C)c1/C=C/c1cncc(-c2nn[nH]n2)c1`, for which the IC50 was found to be 0.1 µM.

For the compound `Cc1cc(-c2cccnc2)cc(C)c1/C=C/c1cncc(-c2nn[nH]n2)c1`, the IC50 worked out at 0.63 µM.

`CNC(=O)Oc1cc(C)c(/C=C/c2cncc(C(=O)NC)c2)c(C)c1` [GW432441X] showed an IC50 of 0.01 µM.

The compound `CN(c1ccncc1)c1ccc(NC(=O)Nc2cc(C(C)(C)C)on2)cc1` registered an IC50 of 3.5 µM.

In turn, `Cc1cccc(C)c1/C=C/c1cncc(C#N)c1` had an IC50 of 1 µM.

Consider `Cc1cc(O)cc(C)c1/C=C/c1cncc(C(N)=O)c1` [GW435821X], for which inhibition was half-maximal at 0.158 µM (IC50).

As to `COC(=O)c1nc(C(C)(C)C)sc1NC(=O)Nc1ccc(C)cc1`, the IC50 was 25 µM.

`CNC(=O)Oc1cc(C)c(/C=C/c2cncc(C(=O)O)c2)c(C)c1` displayed an IC50 of 0.006 µM.

`CC(C)(C)c1cc(NC(=O)Nc2ccc(Oc3ccc(C(=O)O)cc3)cc2)no1`: half-maximal inhibition (IC50) was put at 6.3 µM.

The compound `CNC(=O)Oc1cc(C)c(/C=C/c2cncc(C(N)=O)c2)c(C)c1` registered an IC50 of 0.007 µM.

In general, IC50 refers to the concentration that inhibits the measured activity by half. Higher therefore signals a need for much substance.

The record behind these values is ChEMBL document CHEMBL1143922, “Pharmacophore identification of Raf-1 kinase inhibitors” (Bioorg Med Chem Lett, 2008).
